Laboratory results from article PMC12848717, “Discovery of Encrypted Peptides in a Human Matrix Metallopeptidase” (JACS Au, 2025).
Like-named read-outs stand apart in the source and are kept apart here. Ends that are not written are not given here.

What was measured:
[1] = test system: S. epidermidis ATCC 35984; details: for MIC after treatment 1: serial exposure at MIC/2, treatment 1 of 21; for MIC after treatment 2: serial exposure at MIC/2, treatment 2 of 21; for MIC after treatment 3: serial exposure at MIC/2, treatment 3 of 21; for MIC after treatment 4: serial exposure at MIC/2, treatment 4 of 21; for MIC after treatment 5: serial exposure at MIC/2, treatment 5 of 21; for MIC after treatment 6: serial exposure at MIC/2, treatment 6 of 21; for MIC after treatment 7: serial exposure at MIC/2, treatment 7 of 21; for MIC after treatment 8: serial exposure at MIC/2, treatment 8 of 21; for MIC after treatment 9: serial exposure at MIC/2, treatment 9 of 21; for MIC after treatment 10: serial exposure at MIC/2, treatment 10 of 21; for MIC after treatment 11: serial exposure at MIC/2, treatment 11 of 21; for MIC after treatment 13: serial exposure at MIC/2, treatment 13 of 21; for MIC after treatment 14: serial exposure at MIC/2, treatment 14 of 21; for MIC after treatment 15: serial exposure at MIC/2, treatment 15 of 21; for MIC after treatment 16: serial exposure at MIC/2, treatment 16 of 21; for MIC after treatment 17: serial exposure at MIC/2, treatment 17 of 21; for MIC after treatment 18: serial exposure at MIC/2, treatment 18 of 21; for MIC after treatment 19: serial exposure at MIC/2, treatment 19 of 21; for MIC after treatment 20: serial exposure at MIC/2, treatment 20 of 21; for MIC after treatment 21: serial exposure at MIC/2, treatment 21 of 21
A. baumannii ATCC 19606 = details: for MIC after treatment 1: serial exposure at MIC/2, treatment 1 of 21; for MIC after treatment 2: serial exposure at MIC/2, treatment 2 of 21; for MIC after treatment 3: serial exposure at MIC/2, treatment 3 of 21; for MIC after treatment 4: serial exposure at MIC/2, treatment 4 of 21; for MIC after treatment 5: serial exposure at MIC/2, treatment 5 of 21; for MIC after treatment 6: serial exposure at MIC/2, treatment 6 of 21; for MIC after treatment 7: serial exposure at MIC/2, treatment 7 of 21; for MIC after treatment 8: serial exposure at MIC/2, treatment 8 of 21; for MIC after treatment 9: serial exposure at MIC/2, treatment 9 of 21; for MIC after treatment 10: serial exposure at MIC/2, treatment 10 of 21; for MIC after treatment 11: serial exposure at MIC/2, treatment 11 of 21; for MIC after treatment 13: serial exposure at MIC/2, treatment 13 of 21; for MIC after treatment 14: serial exposure at MIC/2, treatment 14 of 21; for MIC after treatment 15: serial exposure at MIC/2, treatment 15 of 21; for MIC after treatment 16: serial exposure at MIC/2, treatment 16 of 21; for MIC after treatment 17: serial exposure at MIC/2, treatment 17 of 21; for MIC after treatment 18: serial exposure at MIC/2, treatment 18 of 21; for MIC after treatment 19: serial exposure at MIC/2, treatment 19 of 21; for MIC after treatment 20: serial exposure at MIC/2, treatment 20 of 21; for MIC after treatment 21: serial exposure at MIC/2, treatment 21 of 21
[2] = test system: Human coronavirus 229E (HCoV-229E); details: plaque reduction
[3] = read-out: IC50, co-treatment, Vero-76 cells exposed to virus and peptide simultaneously, 1 h, 37 °C
[4] = read-out: IC50, virus pretreatment, virus incubated with peptide 1 h, 37 °C before infection
[5] = Table S4, serial exposure at MIC/2, treatment 12 of 21
[6] = Table S3, serial exposure at MIC/2, treatment 12 of 21

PYLLLGRWRKKHLTFRILNL [r(P)YLL19]
5 µM: MIC after treatment 12 ([1]; ATCC 35984) | MIC after treatment 1 ([1]; Table S4) | MIC after treatment 2 ([1]; Table S4) | MIC after treatment 3 ([1]; Table S4) | MIC after treatment 4 ([1]; Table S4) | MIC after treatment 5 ([1]; Table S4) | MIC after treatment 6 ([1]; Table S4) | MIC after treatment 7 ([1]; Table S4) | MIC after treatment 8 ([1]; Table S4) | MIC after treatment 9 ([1]; Table S4) | MIC after treatment 10 ([1]; Table S4) | MIC after treatment 11 ([1]; Table S4) | MIC after treatment 13 ([1]; Table S4) | MIC after treatment 14 ([1]; Table S4) | MIC after treatment 15 ([1]; Table S4) | MIC after treatment 16 ([1]; Table S4) | MIC after treatment 17 ([1]; Table S4) | MIC after treatment 18 ([1]; Table S4) | MIC after treatment 19 ([1]; Table S4) | MIC after treatment 20 ([1]; Table S4) | MIC after treatment 21 ([1]; Table S4) | MIC after treatment 12 (A. baumannii ATCC 19606; ATCC 19606) | MIC after treatment 1 (A. baumannii ATCC 19606; Table S3) | MIC after treatment 2 (A. baumannii ATCC 19606; Table S3) | MIC after treatment 3 (A. baumannii ATCC 19606; Table S3) | MIC after treatment 4 (A. baumannii ATCC 19606; Table S3) | MIC after treatment 5 (A. baumannii ATCC 19606; Table S3) | MIC after treatment 6 (A. baumannii ATCC 19606; Table S3) | MIC after treatment 7 (A. baumannii ATCC 19606; Table S3) | MIC after treatment 8 (A. baumannii ATCC 19606; Table S3) | MIC after treatment 9 (A. baumannii ATCC 19606; Table S3) | MIC after treatment 10 (A. baumannii ATCC 19606; Table S3) | MIC after treatment 11 (A. baumannii ATCC 19606; Table S3) | MIC after treatment 13 (A. baumannii ATCC 19606; Table S3) | MIC after treatment 14 (A. baumannii ATCC 19606; Table S3) | MIC after treatment 15 (A. baumannii ATCC 19606; Table S3) | MIC after treatment 16 (A. baumannii ATCC 19606; Table S3) | MIC after treatment 17 (A. baumannii ATCC 19606; Table S3) | MIC after treatment 18 (A. baumannii ATCC 19606; Table S3) | MIC after treatment 19 (A. baumannii ATCC 19606; Table S3) | MIC after treatment 20 (A. baumannii ATCC 19606; Table S3) | MIC after treatment 21 (A. baumannii ATCC 19606; Table S3)
0.56 µM: IC50 [2, 4]
12.5 µM: IC50 [2, 3]

Colistin [reference compound]
8 µM: MIC after treatment 1 ([1]; Table S4) | MIC after treatment 2 ([1]; Table S4) | MIC after treatment 3 ([1]; Table S4) | MIC after treatment 4 ([1]; Table S4) | MIC after treatment 5 ([1]; Table S4) | MIC after treatment 6 ([1]; Table S4) | MIC after treatment 7 ([1]; Table S4) | MIC after treatment 8 ([1]; Table S4) | MIC after treatment 9 ([1]; Table S4) | MIC after treatment 10 ([1]; Table S4) | MIC after treatment 11 ([1]; Table S4) | MIC after treatment 12 [1, 5] | MIC after treatment 13 ([1]; Table S4) | MIC after treatment 14 ([1]; Table S4) | MIC after treatment 15 ([1]; Table S4) | MIC after treatment 16 ([1]; Table S4) | MIC after treatment 17 ([1]; Table S4) | MIC after treatment 18 ([1]; Table S4) | MIC after treatment 19 ([1]; Table S4) | MIC after treatment 20 ([1]; Table S4) | MIC after treatment 21 ([1]; Table S4)
4 µM: MIC after treatment 1 (A. baumannii ATCC 19606; Table S3) | MIC after treatment 2 (A. baumannii ATCC 19606; Table S3) | MIC after treatment 3 (A. baumannii ATCC 19606; Table S3) | MIC after treatment 4 (A. baumannii ATCC 19606; Table S3) | MIC after treatment 5 (A. baumannii ATCC 19606; Table S3) | MIC after treatment 6 (A. baumannii ATCC 19606; Table S3) | MIC after treatment 7 (A. baumannii ATCC 19606; Table S3) | MIC after treatment 8 (A. baumannii ATCC 19606; Table S3) | MIC after treatment 9 (A. baumannii ATCC 19606; Table S3) | MIC after treatment 10 (A. baumannii ATCC 19606; Table S3) | MIC after treatment 11 (A. baumannii ATCC 19606; Table S3) | MIC after treatment 12 (A. baumannii ATCC 19606; [6]) | MIC after treatment 13 (A. baumannii ATCC 19606; Table S3) | MIC after treatment 14 (A. baumannii ATCC 19606; Table S3) | MIC after treatment 15 (A. baumannii ATCC 19606; Table S3) | MIC after treatment 16 (A. baumannii ATCC 19606; Table S3) | MIC after treatment 17 (A. baumannii ATCC 19606; Table S3) | MIC after treatment 18 (A. baumannii ATCC 19606; Table S3) | MIC after treatment 19 (A. baumannii ATCC 19606; Table S3) | MIC after treatment 20 (A. baumannii ATCC 19606; Table S3) | MIC after treatment 21 (A. baumannii ATCC 19606; Table S3)

PYLLLGRWRKKHLTFRILNLPSTLPPHTARAALR [r(P)YLL33]
5 µM: MIC after treatment 12 ([1]; ATCC 35984) | MIC after treatment 1 ([1]; Table S4) | MIC after treatment 2 ([1]; Table S4) | MIC after treatment 3 ([1]; Table S4) | MIC after treatment 4 ([1]; Table S4) | MIC after treatment 5 ([1]; Table S4) | MIC after treatment 6 ([1]; Table S4) | MIC after treatment 7 ([1]; Table S4) | MIC after treatment 8 ([1]; Table S4) | MIC after treatment 9 ([1]; Table S4) | MIC after treatment 10 ([1]; Table S4) | MIC after treatment 11 ([1]; Table S4) | MIC after treatment 13 ([1]; Table S4) | MIC after treatment 14 ([1]; Table S4) | MIC after treatment 15 ([1]; Table S4) | MIC after treatment 16 ([1]; Table S4) | MIC after treatment 17 ([1]; Table S4) | MIC after treatment 18 ([1]; Table S4) | MIC after treatment 19 ([1]; Table S4) | MIC after treatment 20 ([1]; Table S4) | MIC after treatment 21 ([1]; Table S4) | MIC after treatment 12 (A. baumannii ATCC 19606; ATCC 19606) | MIC after treatment 1 (A. baumannii ATCC 19606; Table S3) | MIC after treatment 2 (A. baumannii ATCC 19606; Table S3) | MIC after treatment 3 (A. baumannii ATCC 19606; Table S3) | MIC after treatment 4 (A. baumannii ATCC 19606; Table S3) | MIC after treatment 5 (A. baumannii ATCC 19606; Table S3) | MIC after treatment 6 (A. baumannii ATCC 19606; Table S3) | MIC after treatment 7 (A. baumannii ATCC 19606; Table S3) | MIC after treatment 8 (A. baumannii ATCC 19606; Table S3) | MIC after treatment 9 (A. baumannii ATCC 19606; Table S3) | MIC after treatment 10 (A. baumannii ATCC 19606; Table S3) | MIC after treatment 11 (A. baumannii ATCC 19606; Table S3) | MIC after treatment 13 (A. baumannii ATCC 19606; Table S3) | MIC after treatment 14 (A. baumannii ATCC 19606; Table S3) | MIC after treatment 15 (A. baumannii ATCC 19606; Table S3) | MIC after treatment 16 (A. baumannii ATCC 19606; Table S3) | MIC after treatment 17 (A. baumannii ATCC 19606; Table S3) | MIC after treatment 18 (A. baumannii ATCC 19606; Table S3) | MIC after treatment 19 (A. baumannii ATCC 19606; Table S3) | MIC after treatment 20 (A. baumannii ATCC 19606; Table S3) | MIC after treatment 21 (A. baumannii ATCC 19606; Table S3)
16.4 µM: IC50 [2, 4]
27.8 µM: IC50 [2, 3]

Polymyxin B [reference compound]
4 µM: MIC after treatment 1 ([1]; Table S4) | MIC after treatment 2 ([1]; Table S4) | MIC after treatment 3 ([1]; Table S4) | MIC after treatment 4 ([1]; Table S4) | MIC after treatment 5 ([1]; Table S4) | MIC after treatment 6 ([1]; Table S4) | MIC after treatment 7 ([1]; Table S4) | MIC after treatment 8 ([1]; Table S4) | MIC after treatment 9 ([1]; Table S4) | MIC after treatment 10 ([1]; Table S4) | MIC after treatment 11 ([1]; Table S4) | MIC after treatment 12 [1, 5] | MIC after treatment 13 ([1]; Table S4) | MIC after treatment 14 ([1]; Table S4) | MIC after treatment 15 ([1]; Table S4) | MIC after treatment 16 ([1]; Table S4) | MIC after treatment 17 ([1]; Table S4) | MIC after treatment 18 ([1]; Table S4) | MIC after treatment 19 ([1]; Table S4) | MIC after treatment 20 ([1]; Table S4) | MIC after treatment 21 ([1]; Table S4)
2 µM: MIC after treatment 1 (A. baumannii ATCC 19606; Table S3) | MIC after treatment 2 (A. baumannii ATCC 19606; Table S3) | MIC after treatment 3 (A. baumannii ATCC 19606; Table S3) | MIC after treatment 4 (A. baumannii ATCC 19606; Table S3) | MIC after treatment 5 (A. baumannii ATCC 19606; Table S3) | MIC after treatment 6 (A. baumannii ATCC 19606; Table S3) | MIC after treatment 7 (A. baumannii ATCC 19606; Table S3) | MIC after treatment 8 (A. baumannii ATCC 19606; Table S3) | MIC after treatment 9 (A. baumannii ATCC 19606; Table S3) | MIC after treatment 10 (A. baumannii ATCC 19606; Table S3) | MIC after treatment 11 (A. baumannii ATCC 19606; Table S3) | MIC after treatment 12 (A. baumannii ATCC 19606; [6]) | MIC after treatment 13 (A. baumannii ATCC 19606; Table S3) | MIC after treatment 14 (A. baumannii ATCC 19606; Table S3) | MIC after treatment 15 (A. baumannii ATCC 19606; Table S3) | MIC after treatment 16 (A. baumannii ATCC 19606; Table S3) | MIC after treatment 17 (A. baumannii ATCC 19606; Table S3) | MIC after treatment 18 (A. baumannii ATCC 19606; Table S3) | MIC after treatment 19 (A. baumannii ATCC 19606; Table S3) | MIC after treatment 20 (A. baumannii ATCC 19606; Table S3) | MIC after treatment 21 (A. baumannii ATCC 19606; Table S3)
